According to US11166460B2, “α-amino acrylate microbicide, and preparation method therefor and uses thereof” (priority 2017, dated 2021):
≈ marks a conversion by molar mass, not a printed value. Where two headings read alike, the source gives them in different places.

Experiments:
[1] = tested on: tobacco mosaic virus (TMV); experiment: Anti-TMV curative activity (treatment mode), live friction inoculation on tobacco seedlings; assay type: in vivo; conditions: Tobacco mosaic virus, read-out: Anti-TMV activity, Curative effect (inhibition), 100 μg/mL, tobacco seedlings, checked on seventh day
[2] = tested on: tobacco mosaic virus (TMV); experiment: Anti-TMV inactivation activity (inactivation mode), compound mixed with TMV before inoculation of tobacco leaves; assay type: in vivo; conditions: Tobacco mosaic virus, read-out: Anti-TMV activity, Inactivation effect (inhibition)
[3] = tested on: tobacco mosaic virus (TMV); experiment: Anti-TMV protective activity (protection mode), live friction inoculation on tobacco seedlings; assay type: in vivo; conditions: Tobacco mosaic virus, read-out: Anti-TMV activity, Protection effect (inhibition)
[4] = tested on: tobacco mosaic virus (TMV); experiment: Anti-TMV inducing activity (induction mode), tobacco seedlings; assay type: in vivo; conditions: Tobacco mosaic virus, read-out: Anti-TMV activity, Induction effect (inhibition), 100 μg/mL, tobacco seedlings
Alternaria solani = experiment: Fungicidal activity, fungi growth rate method, AS; assay type: cell-based; conditions: Alternaria solani, 50 μg/mL
Botrytis cinerea = experiment: Fungicidal activity, fungi growth rate method, BC; assay type: cell-based; conditions: Botrytis cinerea, 50 μg/mL
Cercospora arachidicola = experiment: Fungicidal activity, fungi growth rate method, CA; assay type: cell-based; conditions: Mycosphaerella arachidis, 50 μg/mL
wheat Gibberella zeae = experiment: microbe, parasite or virus in culture; assay type: cell-based; conditions: Fusarium graminearum
[5] = tested on: Phytophthora infestans (Mont) de Bary; experiment: microbe, parasite or virus in culture; assay type: cell-based; conditions: Phytophthora infestans
Physalospora piricola = experiment: Fungicidal activity, fungi growth rate method, PP; assay type: cell-based; conditions: 50 μg/mL
Pellicularia sasakii = experiment: Fungicidal activity, fungi growth rate method, PS; assay type: cell-based; conditions: 50 μg/mL
Rhizoctonia cerealis = experiment: Fungicidal activity, fungi growth rate method, RC; assay type: cell-based; conditions: Ceratobasidium cereale, 50 μg/mL
Sclerotinia sclerotiorum = experiment: microbe, parasite or virus in culture; assay type: cell-based; conditions: Sclerotinia sclerotiorum; for inhibition at 50 µg/mL: 50 μg/mL
[6] = read-out: Fungicidal activity, inhibition, AS
[7] = read-out: Fungicidal activity, inhibition, BC
[8] = read-out: Fungicidal activity, inhibition, CA
[9] = read-out: Fungicidal activity, inhibition, GZ
[10] = read-out: Fungicidal activity, inhibition, PI
[11] = read-out: Fungicidal activity, inhibition, PP
[12] = read-out: Fungicidal activity, inhibition, PS
[13] = read-out: Fungicidal activity, inhibition, RC
[14] = read-out: Fungicidal activity, inhibition, SS
[15] = read-out: Fungicidal activity (inhibition) against AS: Alternaria solani
[16] = read-out: Fungicidal activity (inhibition) against BC: Botrytis cinerea
[17] = read-out: Fungicidal activity (inhibition) against CA: Cercospora arachidicola
[18] = read-out: Fungicidal activity (inhibition) against GZ: wheat Gibberella zeae
[19] = read-out: Fungicidal activity (inhibition) against PI: Phytophthora infestans (Mont) de Bary
[20] = read-out: Fungicidal activity (inhibition) against PP: Physalospora piricola
[21] = read-out: Fungicidal activity (inhibition) against PS: Pellicularia sasakii
[22] = read-out: Fungicidal activity (inhibition) against RC: Rhizoctonia cerealis
[23] = read-out: Fungicidal activity (inhibition) against SS: Sclerotinia sclerotiorum

Row | Structure (SMILES) | inhibition at 100 µg/mL [1] [%] | inhibition at 100 µg/mL [2] [%] | inhibition at 100 µg/mL [3] [%] | inhibition at 100 µg/mL [4] [%] | inhibition at 50 µg/mL (Alternaria solani; [6]) [%] | inhibition at 50 µg/mL (Botrytis cinerea; [7]) [%] | inhibition at 50 µg/mL (Cercospora arachidicola; [8]) [%] | inhibition at 50 µg/mL (wheat Gibberella zeae; [9]) [%] | inhibition at 50 µg/mL [5, 10] [%] | inhibition at 50 µg/mL (Physalospora piricola; [11]) [%] | inhibition at 50 µg/mL (Pellicularia sasakii; [12]) [%] | inhibition at 50 µg/mL (Rhizoctonia cerealis; [13]) [%] | inhibition at 50 µg/mL (Sclerotinia sclerotiorum; [14]) [%] | melting point [°C] | inhibition at 50 µg/mL (Alternaria solani; [15]) [%] | inhibition at 50 µg/mL (Botrytis cinerea; [16]) [%] | inhibition at 50 µg/mL (Cercospora arachidicola; [17]) [%] | inhibition at 50 µg/mL (wheat Gibberella zeae; [18]) [%] | inhibition at 50 µg/mL [5, 19] [%] | inhibition at 50 µg/mL (Physalospora piricola; [20]) [%] | also measured
1 | COC(=O)CCNC(=O)/C(=C/c1ccccc1)NC(=O)c1ccccc1 [Compound 35, (Z)-N-[1-[[1-(3-methyl propionate)amino]carbonyl]-2-phenylethenyl]benzamide] | 0 | 16 | 3 | 23 | 25 | 21 | 3 | 7 | 13 | 3 | 0 | 7 | 67 | 139 to 141 |  |  |  |  |  |  | 
2 | COC(=O)CCCNC(=O)/C(=C/c1ccccc1)NC(=O)c1ccccc1 [Compound 36, (Z)-N-[1-[[1-(4-methylbutanoate)amino]carbonyl]-2-phenylethenyl]benzamide] | 36 | 0 | 13 | 41 | 21 | 10 | 10 | 0 | 2 | 0 | 0 | 16 | 50 | 110 to 111 |  |  |  |  |  |  | 
3 | COC(=O)[C@H]1CCCN1C(=O)/C(=C/c1ccccc1)NC(=O)c1ccccc1 [Compound 37, (R,Z)-N-[1-[(2-methylpyrrolidinecarboxylate)]carbonyl-2-phenylethenyl]benzamide] | 25 | 0 | 2 | 40 | 17 | 21 | 13 | 23 | 5 | 0 | 6 | 13 | 56 | 155 to 157 |  |  |  |  |  |  | 
4 | O=C(N/C(=C\c1ccccc1)C(=O)N1CCOCC1)c1ccccc1 [Compound 38, (Z)-N-[1-(4-morpholinylcarbonyl)-2-phenylethenyl]benzamide] | 0 | 0 | 38 | 46 | 8 | 4 | 7 | 6 | 11 | 0 | 13 | 9 | 77 | 147 to 149 | < 30 | ≤ 20 | < 25 | < 45 | < 25 | < 20 | inhibition at 50 µg/mL (Pellicularia sasakii; [21]): < 30%; inhibition at 50 µg/mL (Rhizoctonia cerealis; [22]): < 20%; inhibition at 50 µg/mL (Sclerotinia sclerotiorum; [23]): 77%
5 | O=C(NC1CC1)/C(=C/c1ccccc1)NC(=O)c1ccccc1 [Compound 39, (Z)-N-[1-[(cyclopropylamino)carbonyl]-2-phenylethenyl]benzamide] | 18 | 0 | 10 | 34 | 17 | 9 | 13 | 13 | 11 | 3 | 6 | 3 | 67 | 185 to 186 | < 30 | ≤ 20 | < 25 | < 45 | < 25 | < 20 | inhibition at 50 µg/mL (Pellicularia sasakii; [21]): < 30%; inhibition at 50 µg/mL (Rhizoctonia cerealis; [22]): < 20%; inhibition at 50 µg/mL (Sclerotinia sclerotiorum; [23]): 67%
6 | O=C(NC1CCCCC1)/C(=C/c1ccccc1)NC(=O)c1ccccc1 [Compound 40, (Z)-N-[1-[(cyclohexylamino)carbonyl]-2-phenylethenyl]benzamide] | 0 | 0 | 0 | 45 | 13 | 10 | 10 | 11 | 11 | 0 | 6 | 10 | 56 | 204 to 206 | < 30 | ≤ 20 | < 25 | < 45 | < 25 | < 20 | inhibition at 50 µg/mL (Pellicularia sasakii; [21]): < 30%; inhibition at 50 µg/mL (Rhizoctonia cerealis; [22]): < 20%; inhibition at 50 µg/mL (Sclerotinia sclerotiorum; [23]): 56%
7 | CNC(=O)/C(=C/c1csc(C2CCN(C(=O)OC(C)(C)C)CC2)n1)NC(=O)c1ccccc1 [Compound 41, (Z)-N-[1-[(methylamino)carbonyl]-2-[4-[2-[4-(1-Boc-piperidine)]thiazol]]ethenyl]benzamide] | 0 | 0 | 30 | 2 | 54 | 52 | 35 | 34 | 39 | 37 | 33 | 33 | 96 | 107 to 109 |  | 52 |  |  |  |  | EC90 (Sclerotinia sclerotiorum; read-out: EC90 against S. sclerotiorum in vitro): 375 µg/mL (≈ 796 µM)
